Assay results reported in patent US10280170B2, “Substituted 4,5,6,7-tetrahydro-pyrazolo[1,5-a]pyrazine derivatives and 5,6,7,8-tetrahydro-4H-pyrazolo[1,5-a][1,4]diazepine derivatives as Ros1 inhibitors” (Janssen Pharmaceutica NV, priority 2014, dated 2019).
Where two headings read alike, the source gives them in different places.

Experiments:
[1] = target: Ba/F3 cells containing Ros1 with a mutation at the gatekeeper residue (L2026M) (Homo sapiens, UniProt P08922, L2026M, cells depend on it, form not given); assay: Ba/F3-Ros1 cell proliferation assay, L2026M gatekeeper mutant; assay type: cell-based, murine; conditions: without IL-3
Ba/F3 cells containing Ros1 with a mutation at the gatekeeper residue (L2026M), sequence (P08922 whole entry L2026M, form open): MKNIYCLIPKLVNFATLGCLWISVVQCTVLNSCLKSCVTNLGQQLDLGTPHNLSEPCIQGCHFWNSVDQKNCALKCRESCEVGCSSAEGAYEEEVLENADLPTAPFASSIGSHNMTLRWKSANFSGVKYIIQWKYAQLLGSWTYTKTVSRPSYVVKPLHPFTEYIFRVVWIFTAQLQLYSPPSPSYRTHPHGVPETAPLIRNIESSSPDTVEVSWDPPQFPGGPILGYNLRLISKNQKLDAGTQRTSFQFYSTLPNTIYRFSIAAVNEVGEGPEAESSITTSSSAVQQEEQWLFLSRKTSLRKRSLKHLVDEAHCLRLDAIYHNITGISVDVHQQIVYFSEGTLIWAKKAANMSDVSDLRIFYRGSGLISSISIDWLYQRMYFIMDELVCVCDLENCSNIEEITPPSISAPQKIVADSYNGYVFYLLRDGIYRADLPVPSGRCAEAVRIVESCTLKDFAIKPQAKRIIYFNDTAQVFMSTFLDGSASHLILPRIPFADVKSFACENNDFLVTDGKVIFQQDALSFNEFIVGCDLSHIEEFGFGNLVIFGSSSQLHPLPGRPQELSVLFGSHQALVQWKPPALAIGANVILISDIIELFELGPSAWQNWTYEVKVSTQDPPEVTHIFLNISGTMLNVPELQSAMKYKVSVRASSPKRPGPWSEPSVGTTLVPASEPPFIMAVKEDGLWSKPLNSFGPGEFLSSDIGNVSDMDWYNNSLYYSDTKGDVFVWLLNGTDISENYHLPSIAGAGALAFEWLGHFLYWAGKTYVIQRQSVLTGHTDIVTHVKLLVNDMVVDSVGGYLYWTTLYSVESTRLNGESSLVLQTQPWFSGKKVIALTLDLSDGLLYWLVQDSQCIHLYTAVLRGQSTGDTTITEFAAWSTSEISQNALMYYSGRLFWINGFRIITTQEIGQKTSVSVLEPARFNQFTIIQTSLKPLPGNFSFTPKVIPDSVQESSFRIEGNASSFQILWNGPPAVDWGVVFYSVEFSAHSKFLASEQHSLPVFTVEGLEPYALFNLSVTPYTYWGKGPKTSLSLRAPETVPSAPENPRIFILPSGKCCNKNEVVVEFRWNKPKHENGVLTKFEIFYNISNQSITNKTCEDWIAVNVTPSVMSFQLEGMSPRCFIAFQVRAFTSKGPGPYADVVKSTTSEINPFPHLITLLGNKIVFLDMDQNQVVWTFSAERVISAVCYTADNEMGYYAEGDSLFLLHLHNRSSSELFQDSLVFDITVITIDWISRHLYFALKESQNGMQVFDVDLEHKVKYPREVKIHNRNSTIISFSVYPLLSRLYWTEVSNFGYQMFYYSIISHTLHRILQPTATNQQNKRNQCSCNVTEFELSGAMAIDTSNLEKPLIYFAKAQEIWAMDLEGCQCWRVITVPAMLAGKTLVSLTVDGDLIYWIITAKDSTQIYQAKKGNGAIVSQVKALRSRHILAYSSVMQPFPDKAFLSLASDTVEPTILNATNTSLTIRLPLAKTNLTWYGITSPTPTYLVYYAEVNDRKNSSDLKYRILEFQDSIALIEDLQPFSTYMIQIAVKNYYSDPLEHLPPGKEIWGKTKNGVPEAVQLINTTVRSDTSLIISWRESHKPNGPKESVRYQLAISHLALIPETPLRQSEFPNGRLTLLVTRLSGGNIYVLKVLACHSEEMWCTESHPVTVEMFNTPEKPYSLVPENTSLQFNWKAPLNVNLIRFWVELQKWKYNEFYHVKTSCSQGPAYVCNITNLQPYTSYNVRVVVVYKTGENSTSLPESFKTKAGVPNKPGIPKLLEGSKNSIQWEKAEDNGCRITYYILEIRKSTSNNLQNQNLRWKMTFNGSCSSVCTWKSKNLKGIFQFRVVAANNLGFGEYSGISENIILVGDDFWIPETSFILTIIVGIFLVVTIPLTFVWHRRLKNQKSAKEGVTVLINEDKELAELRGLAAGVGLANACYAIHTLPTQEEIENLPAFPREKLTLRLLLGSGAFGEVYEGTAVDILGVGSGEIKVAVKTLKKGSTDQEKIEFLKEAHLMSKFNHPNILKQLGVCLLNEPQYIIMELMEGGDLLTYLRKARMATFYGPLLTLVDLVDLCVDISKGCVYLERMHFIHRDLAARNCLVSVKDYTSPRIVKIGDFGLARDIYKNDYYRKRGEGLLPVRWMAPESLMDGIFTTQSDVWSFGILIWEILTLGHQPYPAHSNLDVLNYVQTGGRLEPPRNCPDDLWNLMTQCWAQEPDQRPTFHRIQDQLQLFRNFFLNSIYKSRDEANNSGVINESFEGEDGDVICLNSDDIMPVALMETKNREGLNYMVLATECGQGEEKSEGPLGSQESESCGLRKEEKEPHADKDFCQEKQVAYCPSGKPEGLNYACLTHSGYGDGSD
How it was run: (§1)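 Ba/F3 cells expressing wild-type, L2026M or G2032R Ros1, 20000 cells/well in phenol red-free RPMI-1640 with 10% FBS, 2 mM L-glutamine, exposed to compound for 24 h at 37 °C, 5% CO2. Viability read by Alamar Blue (resazurin) fluorescence, ex 540/em 590 nm, after 4 h further incubation.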

[2] = system: Ba/F3 cells containing Ros1 wild-type protein + IL-3; assay: Ba/F3-Ros1 cell proliferation counter-screen, wild-type protein in the presence of 10 ng/ml murine IL-3; assay type: cell-based; conditions: Mus musculus, BaF3, 24 h, read-out: BaF3-ROS1 + IL3 pIC50 (converted)
How it was run: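 Proliferation of IL-3-supplemented (10 ng/ml, murine) Ba/F3 cells bearing wild-type Ros1 is measured after 24 h compound treatment. Alamar Blue conversion over 4 h gives fluorescence at 590 nm.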

[3] = target: T1, Ba/F3 cells containing Ros1 wild-type protein (Homo sapiens, UniProt P08922, cells depend on it, form not given); assay: Ba/F3-Ros1 cell proliferation assay, wild-type Ros1; assay type: cell-based, murine; conditions: without IL-3
T1 construct: The background only speaks of 'a number of different unrelated proteins' and names SLC34A2-ROS1 for HCC78 cells
T1 sequence (P08922 whole entry, stated change not applied): as the sequence (P08922 whole entry L2026M, form open) above, with M2026L counted along it
How it was run: as §1

[4] = system: HCC78 non-small cell lung cancer cells; assay: HCC78 cell proliferation assay; assay type: cell-based; conditions: Homo sapiens, HCC78, 96 h, read-out: HCC-78 PROL pEC50 (converted)
How it was run: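 HCC78 NSCLC cells (~1000/well) in RPMI-1640 with 10% FBS were treated 24 h after seeding and exposed to compound for 4 days at 37 °C. Viability was read by MTT, with absorbance at 538 nm after DMSO/glycine solubilization.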

[5] = system: Ros pY2274 in HCC78 cells; assay: pROS1 immunofluorescence assay in HCC78 cells; assay type: cell-based; conditions: Homo sapiens, read-out: HCC78-pRos1 pIC50 (converted)
Experimental: pROS1 Immunofluorescence Assay in HCC78 Cells
Approximately 20000 HCC78 non-small cell lung cancer cells in 180 μl of cell culture medium (RPMI-1640, 10% FBS, 2 mM L-Glutamine, 10 mM Hepes, 1 mM sodium pyruvate, 4.5 g/L glucose, 1.5 g/L sodium bicarbonate, 25 μg/ml Gentamycin) were seeded in each well of a 96-well polystyrene, poly-D-lysine coated plate and incubated at 37° C. and 5% CO2. After 24 hours, compounds were diluted in cell culture medium from which 20 μl was added to the wells containing cells and incubated for 4 hours at 37° C. and 5% CO2. The medium was removed and the cells were fixed by adding 100 μl of 5% formaldehyde in TBS (tris-buffered saline) (50 mM Tris.HCl, pH 7.4, 150 mM NaCl) and incubating for 15 minutes at room temperature. The formaldehyde was removed and replaced with methanol for 10 minutes at room temperature, after which the cells were washed 3 times with TBS containing 1% Triton X-100 and incubated in Odyssee (Li-Cor) blocking buffer for 1 hour at room temperature. The cells were then incubated with the primary rabbit antibody directed against Ros pY2274 (cst-3078) diluted 1/200 in blocking buffer for 24 hours at room temperature. The cells were washed three times with TBS containing 0.1% Triton X-100 and incubated with a secondary anti-rabbit antibody conjugated to the fluorescent dye Alexafluor 680 in blocking buffer for 1 hour at room temperature. The cells were washed three times with TBS containing 0.1% Triton X-100 and left to dry before measuring RFUs (Relative Fluorescence Units) at 700 nm using a fluorescence imager.
The same experiment was performed using total Ros1 antibody (sc-6347) diluted 1/1000 instead of Ros1 pY2274 antibody and an anti-goat antibody conjugated to IRDye800cw as a secondary antibody. RFUs were measured at […]. The signals from total Ros1 detection were used to normalize the Ros1 pY2274 values.

Ros1 enzyme = target: T2, Ros1 enzyme (Homo sapiens, UniProt P08922); assay: Ros1 enzymatic assay; assay type: biochemical; conditions: Ros1 enzymatic assay; read-out: ROS1 pIC50 (converted)
T2 construct: 0.5 μg/ml Ros1 enzyme
T2 sequence (P08922 28-2347): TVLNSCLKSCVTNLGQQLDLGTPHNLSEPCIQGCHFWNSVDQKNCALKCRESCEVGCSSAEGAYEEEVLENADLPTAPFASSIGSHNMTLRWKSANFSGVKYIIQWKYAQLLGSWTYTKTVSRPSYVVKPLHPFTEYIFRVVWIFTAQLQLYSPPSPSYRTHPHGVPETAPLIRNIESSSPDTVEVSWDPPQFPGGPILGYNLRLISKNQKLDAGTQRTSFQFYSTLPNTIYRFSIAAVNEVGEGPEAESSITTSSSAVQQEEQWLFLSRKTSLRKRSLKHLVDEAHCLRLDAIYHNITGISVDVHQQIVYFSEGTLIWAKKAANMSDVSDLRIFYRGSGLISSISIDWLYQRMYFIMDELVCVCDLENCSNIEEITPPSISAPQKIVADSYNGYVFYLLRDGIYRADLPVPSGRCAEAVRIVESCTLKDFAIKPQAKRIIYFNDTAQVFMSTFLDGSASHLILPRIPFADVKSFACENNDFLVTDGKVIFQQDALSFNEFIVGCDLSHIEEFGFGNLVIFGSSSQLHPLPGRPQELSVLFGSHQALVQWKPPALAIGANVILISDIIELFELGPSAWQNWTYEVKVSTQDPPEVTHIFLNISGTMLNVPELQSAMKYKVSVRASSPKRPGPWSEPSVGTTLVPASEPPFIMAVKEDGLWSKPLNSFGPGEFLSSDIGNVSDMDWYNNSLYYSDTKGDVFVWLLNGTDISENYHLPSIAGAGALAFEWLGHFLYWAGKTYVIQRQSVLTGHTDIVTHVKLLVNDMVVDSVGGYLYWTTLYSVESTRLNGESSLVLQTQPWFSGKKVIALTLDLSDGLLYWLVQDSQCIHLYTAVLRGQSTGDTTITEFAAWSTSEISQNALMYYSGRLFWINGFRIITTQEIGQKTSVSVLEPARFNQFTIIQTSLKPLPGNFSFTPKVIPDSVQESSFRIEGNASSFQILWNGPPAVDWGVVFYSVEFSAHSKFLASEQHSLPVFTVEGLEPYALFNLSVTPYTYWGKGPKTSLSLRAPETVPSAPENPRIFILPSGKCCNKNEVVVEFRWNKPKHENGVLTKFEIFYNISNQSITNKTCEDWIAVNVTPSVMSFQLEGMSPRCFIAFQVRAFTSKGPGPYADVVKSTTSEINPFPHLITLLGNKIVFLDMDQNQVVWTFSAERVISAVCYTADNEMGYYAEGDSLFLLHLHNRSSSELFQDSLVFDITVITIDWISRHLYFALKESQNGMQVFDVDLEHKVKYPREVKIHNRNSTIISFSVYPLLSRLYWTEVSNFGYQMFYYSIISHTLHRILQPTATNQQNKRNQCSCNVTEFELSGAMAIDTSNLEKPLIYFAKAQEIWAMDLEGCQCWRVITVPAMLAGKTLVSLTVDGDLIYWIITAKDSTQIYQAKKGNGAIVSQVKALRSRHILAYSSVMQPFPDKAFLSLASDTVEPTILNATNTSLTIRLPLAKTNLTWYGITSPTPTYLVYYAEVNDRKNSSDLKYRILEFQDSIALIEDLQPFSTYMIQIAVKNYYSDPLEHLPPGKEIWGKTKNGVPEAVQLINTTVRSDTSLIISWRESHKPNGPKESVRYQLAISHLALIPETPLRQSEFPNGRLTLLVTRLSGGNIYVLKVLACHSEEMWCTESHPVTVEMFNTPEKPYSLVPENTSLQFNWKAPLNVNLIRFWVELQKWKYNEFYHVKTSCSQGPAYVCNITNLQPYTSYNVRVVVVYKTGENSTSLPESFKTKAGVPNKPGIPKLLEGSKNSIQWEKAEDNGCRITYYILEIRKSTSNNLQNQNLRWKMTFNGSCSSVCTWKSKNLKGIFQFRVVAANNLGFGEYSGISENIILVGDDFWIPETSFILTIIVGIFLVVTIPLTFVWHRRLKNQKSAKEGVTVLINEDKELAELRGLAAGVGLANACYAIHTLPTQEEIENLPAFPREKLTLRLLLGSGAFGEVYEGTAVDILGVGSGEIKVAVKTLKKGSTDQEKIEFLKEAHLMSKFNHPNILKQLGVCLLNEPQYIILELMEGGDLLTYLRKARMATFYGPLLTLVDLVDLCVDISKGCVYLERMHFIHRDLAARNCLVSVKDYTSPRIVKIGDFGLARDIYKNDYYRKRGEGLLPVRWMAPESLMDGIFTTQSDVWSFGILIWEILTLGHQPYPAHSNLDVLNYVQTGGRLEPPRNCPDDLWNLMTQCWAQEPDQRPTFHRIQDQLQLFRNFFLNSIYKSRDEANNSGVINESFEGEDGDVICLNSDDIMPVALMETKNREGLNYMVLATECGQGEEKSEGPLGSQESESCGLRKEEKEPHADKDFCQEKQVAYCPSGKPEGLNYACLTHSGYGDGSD
How it was run: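 Peptide phosphorylation by Ros1 is measured by 33P transfer from 20 μM ATP (as prepared in substrate mix) over 2 h at ambient temperature, pH 7.5 with Mg2+.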

[6] = counter-screen, wild-type, 10 ng/ml murine IL-3
[7] = HCC78 cells, 4 hours, Ros pY2274 normalized to total Ros1

Row | SMILES | Ba/F3 Ros1 L2026M (-IL-3) pIC50 [1] | CC50 [2] [nM] | melting point [°C] | BaF3-ROS1-IL3 pIC50 [3] | EC50 [4] [nM] | IC50 ([5]; HCC78, 4 h) [nM] | IC50 (Ros1 enzyme) [nM] | CC50 [2, 6] [nM] | EC50 ([4]; HCC78 cells, 4 days, MTT) [nM] | IC50 [5, 7] [nM]
1 | COc1cc(-c2c(-c3ccncc3)nn3c2C(=O)N(C)CC3)ccc1OCc1ccc(C(C)C)cc1 [Compound 33] | 7.4 | > 10000 | 151 | 7.7 | < 31.6 | 12.6 | 10 |  |  | 
2 | CC(C)c1ccc(COc2ccc(-c3c(-c4ccncc4)nn4c3C(=O)NCC4)nc2)cc1 [Compound 12] | 6.7 | > 10000 | 84 | 6.5 | 794 | 501 | 316 |  |  | 
3 | CC(C)c1ccc(COc2ccc(-c3c(-c4ccncc4)nn4c3C(=O)N(C)CC4)cc2)cc1 [Compound 48] |  |  | 155 | 7.1 |  |  | 31.6 | > 10000 | 398 | 63.1
4 | CC(C)c1ccc(COc2ccc(-c3c(-c4ccncn4)nn4c3C(=O)N(C(C)C)CC4)cc2)cc1 [Compound 160] | 7.3 |  | 166 | 7.3 |  |  | 39.8 | > 10000 | 100 | 31.6
5 | CC(C)c1ccc(COc2ccc(-c3c(-c4ccncc4)nn4c3CN(C)CC4)cc2)cc1 [Compound 185] |  |  | 120 | 6.3 |  |  | 126 | > 10000 | 794 | 158
6 | CC(C)c1ccc(COc2ccc(-c3c(-c4ccncn4)nn4c3C(=O)N(CCN)CC4)cc2)cc1 [Compound 165] | 6.5 |  | 154 | 6.7 |  |  | 200 | > 10000 | 1260 | 631
7 | O=C1NCCn2nc(-c3ccncc3)c(-c3ccc(OCC#Cc4ccccc4)cc3)c21 [Compound 142] | 6.4 | > 10000 | 245 | 6.9 | 398 | 126 | 126 |  |  | 
8 | CC(C)c1ccc(COc2ccc(-c3c(-c4ccncc4)nn4c3C(=O)NCC4)cc2C#N)cc1 [Compound 26] | 6.5 | > 10000 | 235 | 6.6 | 794 | 631 | 398 |  |  | 
9 | COc1cc(-c2c(-c3ccncc3)nn3c2C(=O)NCC3)cnc1OCc1ccc(C(C)C)cc1 [Compound 8] | 7.8 | > 10000 | 135 | 7.9 | 39.8 | 25.1 | 6.31 |  |  | 
10 | O=C1NCCn2nc(-c3ccncc3)c(-c3ccc(OCc4ccc(C(F)(F)F)cc4)cc3)c21 [Compound 119] | 6.9 | > 10000 | 280 | 7.2 | 398 | 316 | 200 |  |  | 
11 | COc1cc(-c2c(-c3ccnc(N)c3)nn3c2C(=O)NCC3)ccc1OCc1ccc(C(C)C)cc1 [Compound 149] | 7.4 | > 10000 | 179 | 7.6 | < 31.6 | 12.6 | 7.94 |  |  | 
12 | CC(C)c1ccc(COc2ccc(-c3c(-c4ccncn4)nn4c3C(=O)N(C)CC4)cc2)cc1 [Compound 214] | 7.3 |  | 160 | 7.4 |  |  | 31.6 | > 10000 | 100 | 31.6
13 | O=C1NC2(CC2)Cn2nc(-c3ccncc3)c(-c3ccc(OCc4ccc(C5CC5)cc4)cc3)c21 [Compound 5] | 7.5 | > 10000 | 239 | 7.6 | 316 | 50.1 | 25.1 |  |  | 
14 | O=C1NCCn2nc(-c3ccncc3)c(-c3ccc(OCc4ccc(C5CC5)nc4)cc3)c21 [Compound 3] | 7.0 | > 10000 | 276 | 7.3 | 794 | 79.4 | 79.4 |  |  | 
15 | O=C1NCCCn2nc(-c3ccncc3)c(-c3ccc(OCc4ccc(C5CC5)cc4)cc3)c21 [Compound 228] |  |  | 235 | 6.3 |  |  | 398 | > 10000 | 2000 | 501
16 | CC(C)(O)c1ccc(COc2ccc(-c3c(-c4ccncc4)nn4c3C(=O)NCC4)cc2)cc1 [Compound 9] | 6.2 |  | 290 | 6.4 |  |  | 631 | > 10000 | 2000 | 2510
17 | CC1Cn2nc(-c3ccncc3)c(-c3ccc(OCc4ccc(C5CC5)cc4)cc3)c2C(=O)N1 (stereo not shown) [Compound 189] |  | > 10000 | 249 | 7.1 | 200 | 39.8 | 31.6 |  |  | 
